These are literature values, as cited in patent publication US20120225135A1 (priority 2010, published 2012).

The test system of the series is biofilm. The conditions noted are these: cited from earlier work.

In the case of `O=CCCCC=O` [Glutaraldehyde], the effect on biofilm entry is given as “no effect on biofilm”.
As to `O=[O+][O-]` [Ozone], the effect on biofilm entry is “kill cells in the biofilm without any detachment of the biofilm”.
In the case of `OO` [hydrogen peroxide], the “effect on biofilm detachment” value is “very poor to no effect”.
As to `CC(=O)OO` [peracetic acids], the “effect on biofilm detachment” value is “very poor to no effect”.
Turning to chloramines, the detachment of biofilms result is given as “very effective”.
